Our source for the IC50 and Ki values is ChEMBL document CHEMBL1909046, “DrugMatrix in vitro pharmacology data”.

Experiment [1] deals with T1, Alpha-1B adrenergic receptor (Rattus norvegicus, UniProt P15823).
T1 sequence (P15823 whole entry): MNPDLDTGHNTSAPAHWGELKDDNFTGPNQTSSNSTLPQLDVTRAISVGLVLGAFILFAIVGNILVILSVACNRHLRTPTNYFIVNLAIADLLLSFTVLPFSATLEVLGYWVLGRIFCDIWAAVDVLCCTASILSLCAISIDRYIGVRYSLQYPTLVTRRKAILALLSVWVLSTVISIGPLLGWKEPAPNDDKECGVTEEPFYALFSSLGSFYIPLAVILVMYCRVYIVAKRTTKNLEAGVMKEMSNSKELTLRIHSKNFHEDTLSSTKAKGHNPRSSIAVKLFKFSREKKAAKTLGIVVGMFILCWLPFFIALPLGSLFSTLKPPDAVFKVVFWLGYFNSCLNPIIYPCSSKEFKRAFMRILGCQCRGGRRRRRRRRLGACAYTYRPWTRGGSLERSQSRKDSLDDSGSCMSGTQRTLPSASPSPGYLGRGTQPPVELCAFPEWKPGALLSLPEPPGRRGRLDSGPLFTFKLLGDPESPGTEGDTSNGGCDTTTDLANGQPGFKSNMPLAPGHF
The experiment can be described thus: DRUGMATRIX: Alpha-1B adrenergic receptor radioligand binding (ligand: prazosin). It counts as cell membranes, Wistar, Liver, Membrane. To be noted: Not Active = under 50% inhibition at 10 µM.

For experiment [2], the target named is T2, C-X-C chemokine receptor type 2 (Homo sapiens, UniProt P25025). Also: in other assays of this panel Not Active means under 50% inhibition at 10 µM.
T2 sequence (P25025 whole entry): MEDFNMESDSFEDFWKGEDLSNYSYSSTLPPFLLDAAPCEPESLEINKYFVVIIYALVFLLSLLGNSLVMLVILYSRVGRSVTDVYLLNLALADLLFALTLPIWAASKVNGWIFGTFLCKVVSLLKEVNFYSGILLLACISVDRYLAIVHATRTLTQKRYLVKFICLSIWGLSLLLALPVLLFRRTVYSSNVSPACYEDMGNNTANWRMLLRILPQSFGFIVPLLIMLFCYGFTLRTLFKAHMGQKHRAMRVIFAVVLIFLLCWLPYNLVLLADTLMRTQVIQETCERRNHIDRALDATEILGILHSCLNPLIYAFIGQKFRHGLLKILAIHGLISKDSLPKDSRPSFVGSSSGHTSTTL
It counts as cell membranes, Membrane. To be noted: cho-k1.

For experiment [3], the target named is T3, Glucocorticoid receptor (Homo sapiens, UniProt P04150). Also: in other assays of this panel Not Active means under 50% inhibition at 10 µM.
T3 sequence (P04150 whole entry): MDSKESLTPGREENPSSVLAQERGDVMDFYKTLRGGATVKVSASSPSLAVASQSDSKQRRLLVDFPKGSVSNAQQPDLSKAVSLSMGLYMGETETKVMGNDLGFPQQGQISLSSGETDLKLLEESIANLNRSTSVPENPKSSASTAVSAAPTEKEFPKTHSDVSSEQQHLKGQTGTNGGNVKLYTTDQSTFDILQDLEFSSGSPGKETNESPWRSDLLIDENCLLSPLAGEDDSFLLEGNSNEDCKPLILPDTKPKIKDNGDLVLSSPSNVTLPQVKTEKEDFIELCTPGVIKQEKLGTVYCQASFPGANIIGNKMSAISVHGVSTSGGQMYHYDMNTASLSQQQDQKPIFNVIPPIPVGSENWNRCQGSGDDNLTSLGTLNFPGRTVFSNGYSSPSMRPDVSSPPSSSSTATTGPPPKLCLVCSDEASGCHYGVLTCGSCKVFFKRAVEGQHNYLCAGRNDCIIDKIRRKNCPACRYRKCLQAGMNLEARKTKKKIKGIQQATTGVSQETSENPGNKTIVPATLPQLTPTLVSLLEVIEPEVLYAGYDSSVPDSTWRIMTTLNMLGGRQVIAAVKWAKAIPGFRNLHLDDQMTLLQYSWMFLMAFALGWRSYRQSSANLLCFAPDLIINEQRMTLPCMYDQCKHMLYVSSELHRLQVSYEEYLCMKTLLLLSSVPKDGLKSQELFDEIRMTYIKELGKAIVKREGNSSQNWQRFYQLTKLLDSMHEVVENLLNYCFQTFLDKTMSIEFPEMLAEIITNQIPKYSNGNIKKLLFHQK
The settings on record: hela s3.

Experiment [4] has as its target T4, 5-hydroxytryptamine receptor 1A (Rattus norvegicus, UniProt P19327). Also: in other assays of this panel Not Active means under 50% inhibition at 10 µM.
T4 sequence (P19327 whole entry): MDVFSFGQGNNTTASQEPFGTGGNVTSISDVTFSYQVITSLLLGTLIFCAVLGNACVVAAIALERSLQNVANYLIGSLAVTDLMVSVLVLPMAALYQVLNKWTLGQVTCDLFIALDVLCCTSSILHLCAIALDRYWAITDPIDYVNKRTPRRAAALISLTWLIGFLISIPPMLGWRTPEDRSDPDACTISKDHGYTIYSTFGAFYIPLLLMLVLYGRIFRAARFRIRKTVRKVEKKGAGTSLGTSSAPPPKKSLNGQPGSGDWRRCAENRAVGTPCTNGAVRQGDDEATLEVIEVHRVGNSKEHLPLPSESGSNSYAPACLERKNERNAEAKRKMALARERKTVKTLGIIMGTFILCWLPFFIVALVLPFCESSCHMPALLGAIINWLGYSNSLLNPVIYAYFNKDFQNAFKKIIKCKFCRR
It counts as cell membranes, CHO-K1, Membrane.

Experiment [5] deals with T5, Neutrophil elastase (Homo sapiens, UniProt P08246).
T5 sequence (P08246 whole entry): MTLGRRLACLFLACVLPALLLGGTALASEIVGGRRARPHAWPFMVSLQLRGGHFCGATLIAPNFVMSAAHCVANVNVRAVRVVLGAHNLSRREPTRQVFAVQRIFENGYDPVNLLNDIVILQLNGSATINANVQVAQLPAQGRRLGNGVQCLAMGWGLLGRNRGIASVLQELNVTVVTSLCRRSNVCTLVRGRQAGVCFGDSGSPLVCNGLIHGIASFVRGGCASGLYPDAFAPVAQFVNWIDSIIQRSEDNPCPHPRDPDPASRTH
It counts as tissue-based.

Experiment [6] in a line: DRUGMATRIX: Imidazoline I2, Central radioligand binding (ligand: [3H] Idazoxan). It counts as cell membranes, Rattus norvegicus, Wistar, Cerebral cortex, Membrane. The settings on record: Not Active = under 50% inhibition at 10 µM.
Experiment [7] deals with T6, Type-2 angiotensin II receptor (Homo sapiens, UniProt P50052).
T6 sequence (P50052 whole entry): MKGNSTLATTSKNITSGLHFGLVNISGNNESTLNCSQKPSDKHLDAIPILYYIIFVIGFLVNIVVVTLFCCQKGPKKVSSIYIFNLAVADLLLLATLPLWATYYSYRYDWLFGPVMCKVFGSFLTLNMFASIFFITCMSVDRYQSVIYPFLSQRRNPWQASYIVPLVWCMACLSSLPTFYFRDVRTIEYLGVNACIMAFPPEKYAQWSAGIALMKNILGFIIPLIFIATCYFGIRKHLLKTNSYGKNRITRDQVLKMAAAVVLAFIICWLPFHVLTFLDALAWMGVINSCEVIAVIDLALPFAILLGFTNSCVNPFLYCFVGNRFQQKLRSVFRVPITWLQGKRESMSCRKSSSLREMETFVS
The format is cell-based. The settings on record: cho-k1.

For experiment [8], the target named is D(1A) dopamine receptor (Homo sapiens, UniProt P21728). In words: DRUGMATRIX: Dopamine D1 radioligand binding (ligand: [3H] SCH-23390). The format is cell membranes, CHO, Membrane. To be noted: cho; Not Active = under 50% inhibition at 10 µM.
Sequence of D(1A) dopamine receptor (P21728 whole entry): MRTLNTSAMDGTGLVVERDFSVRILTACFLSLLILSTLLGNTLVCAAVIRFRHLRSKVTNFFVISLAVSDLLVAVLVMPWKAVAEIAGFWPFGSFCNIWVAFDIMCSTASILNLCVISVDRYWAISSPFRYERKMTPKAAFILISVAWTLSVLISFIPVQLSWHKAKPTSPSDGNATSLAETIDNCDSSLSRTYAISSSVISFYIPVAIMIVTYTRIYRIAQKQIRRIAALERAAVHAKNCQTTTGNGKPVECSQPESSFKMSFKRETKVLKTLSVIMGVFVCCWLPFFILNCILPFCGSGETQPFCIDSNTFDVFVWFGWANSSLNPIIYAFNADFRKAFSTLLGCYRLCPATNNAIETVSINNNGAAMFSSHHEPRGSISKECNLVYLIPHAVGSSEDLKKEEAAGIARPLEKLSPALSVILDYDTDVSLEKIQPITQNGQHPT

In general, IC50 refers to the concentration needed to halve the response being measured. One may read the Ki as the dissociation constant of the complex between target and ligand, obtained from inhibition or displacement. Consider `CCCC[C@@H](CC)COC(=O)c1ccccc1C(=O)OC[C@@H](CC)CCCC` [BIS(2-ETHYLHEXYL)PHTHALATE], for which the half-inhibitory concentration (IC50) result in experiment [1], in experiment [2], in experiment [3], in experiment [4] (cho-k1), in experiment [5] and in experiment [6] was “Not Active” each time. The half-inhibitory concentration (IC50) result in experiment [7] and in experiment [8] was “Not Active” each time. For the same molecule, the Ki result in experiment [6] is recorded as “Not Active”.
For the molecule `Oc1c(Cl)cc(Cl)cc1Sc1cc(Cl)cc(Cl)c1O` [BITHIONOL], the IC50 result in experiment [1] is “Not Active”; in experiment [2], “Not Active”; in experiment [3], “Not Active”; in experiment [4] (read-out: IC50), 5.51 µM; in experiment [5], “Not Active”; in experiment [6] it was “Not Active”. Besides, the IC50 result in experiment [7] and in experiment [8] was “Not Active” each time. In addition, the Ki in experiment [4] (read-out: Ki) is 3.15 µM; in experiment [6], “Not Active”.
As to `Brc1ccccc1` [BROMOBENZENE], the IC50 entry in experiment [1], in experiment [2], in experiment [3], in experiment [4] (cho-k1), in experiment [5] and in experiment [6] was “Not Active” in each case. Further, the half-inhibitory concentration (IC50) entry in experiment [7] and in experiment [8] was “Not Active” throughout. The Ki entry in experiment [6] is on record as “Not Active”.
For `CCCCOC(=O)c1ccc(N)cc1` [BUTAMBEN], the IC50 result in experiment [1], in experiment [2], in experiment [3], in experiment [4] (cho-k1), in experiment [5] and in experiment [6] was “Not Active” throughout. The IC50 result in experiment [7] and in experiment [8] was “Not Active” each time. Further, in experiment [6], the Ki result is recorded as “Not Active”.
For the molecule `CC[C@@]1(O)C(=O)OCc2c1cc1n(c2=O)Cc2cc3ccccc3nc2-1` [CAMPTOTHECIN], the half-inhibitory concentration (IC50) entry in experiment [1], in experiment [2], in experiment [3], in experiment [4] (cho-k1), in experiment [5] and in experiment [6] was “Not Active” in each case. Moreover, the IC50 result in experiment [7] and in experiment [8] was “Not Active” each time. Also, the Ki entry in experiment [6] is on record as “Not Active”.
In the case of `COCc1c(C(C)C)nc(C(C)C)c(/C=C/[C@@H](O)C[C@@H](O)CC(=O)O)c1-c1ccc(F)cc1` [CERIVASTATIN], the half-inhibitory concentration (IC50) result in experiment [1], in experiment [2], in experiment [3], in experiment [4] (cho-k1), in experiment [5] and in experiment [6] was “Not Active” in each case. The IC50 result in experiment [7] and in experiment [8] was “Not Active” in each case. Further, the inhibitory constant (Ki) entry in experiment [6] was “Not Active”.
In the case of `O=C1CCc2cc(OCCCCc3nnnn3C3CCCCC3)ccc2N1` [CILOSTAZOL], the half-inhibitory concentration (IC50) result in experiment [1], in experiment [2], in experiment [3], in experiment [4] (cho-k1), in experiment [5] and in experiment [6] was “Not Active” each time. Also, the IC50 result in experiment [7] and in experiment [8] was “Not Active” each time. The inhibition constant (Ki) result in experiment [6] is “Not Active”.
Regarding `O=C(O)c1cn(C2CC2)c2cc(N3CCNCC3)c(F)cc2c1=O` [CIPROFLOXACIN], the 50% inhibitory concentration (IC50) entry in experiment [1], in experiment [2], in experiment [3], in experiment [4] (cho-k1), in experiment [5] and in experiment [6] was “Not Active” in each case. In addition, the IC50 entry in experiment [7] and in experiment [8] was “Not Active” in each case. The inhibitory constant (Ki) result in experiment [6] was “Not Active”.
`CN(C)CCCC1(c2ccc(F)cc2)OCc2cc(C#N)ccc21` (configuration not stated) [CITALOPRAM]: the IC50 in experiment [1] (read-out: IC50) is 3.29 µM; in experiment [2] it was “Not Active”; in experiment [3], “Not Active”; in experiment [4] (cho-k1), “Not Active”; in experiment [5], “Not Active”; in experiment [6], “Not Active”. Besides, the IC50 entry in experiment [7] and in experiment [8] was “Not Active” each time. The figures for the inhibition constant (Ki) in experiment [1] (read-out: Ki) and in experiment [6] were 1820 nM and “Not Active”, respectively.
Turning to `COC(=O)[C@H](c1ccccc1Cl)N1CCc2sccc2C1` [CLOPIDOGREL], the 50% inhibitory concentration (IC50) entry in experiment [1], in experiment [2], in experiment [3], in experiment [4] (cho-k1), in experiment [5] and in experiment [6] was “Not Active” throughout. The half-inhibitory concentration (IC50) entry in experiment [7] and in experiment [8] was “Not Active” each time. Further, the Ki result in experiment [6] is “Not Active”.
